Earlier results on one compound are cited in patent publication US20240400534A1, “CHEMICAL TOOLS FOR DRUG TARGET IDENTIFICATION AND CHARACTERIZATION” (Dana-Farber Cancer Institute, Inc., priority 2021, published 2024).

As usually defined, the IC50 is the concentration needed to halve the response being measured.

The data set has as its target USP7 (Homo sapiens, UniProt Q93009). Particulars: selective covalent inhibitor of the DUB USP7.

Chain of USP7 (Q93009 whole entry): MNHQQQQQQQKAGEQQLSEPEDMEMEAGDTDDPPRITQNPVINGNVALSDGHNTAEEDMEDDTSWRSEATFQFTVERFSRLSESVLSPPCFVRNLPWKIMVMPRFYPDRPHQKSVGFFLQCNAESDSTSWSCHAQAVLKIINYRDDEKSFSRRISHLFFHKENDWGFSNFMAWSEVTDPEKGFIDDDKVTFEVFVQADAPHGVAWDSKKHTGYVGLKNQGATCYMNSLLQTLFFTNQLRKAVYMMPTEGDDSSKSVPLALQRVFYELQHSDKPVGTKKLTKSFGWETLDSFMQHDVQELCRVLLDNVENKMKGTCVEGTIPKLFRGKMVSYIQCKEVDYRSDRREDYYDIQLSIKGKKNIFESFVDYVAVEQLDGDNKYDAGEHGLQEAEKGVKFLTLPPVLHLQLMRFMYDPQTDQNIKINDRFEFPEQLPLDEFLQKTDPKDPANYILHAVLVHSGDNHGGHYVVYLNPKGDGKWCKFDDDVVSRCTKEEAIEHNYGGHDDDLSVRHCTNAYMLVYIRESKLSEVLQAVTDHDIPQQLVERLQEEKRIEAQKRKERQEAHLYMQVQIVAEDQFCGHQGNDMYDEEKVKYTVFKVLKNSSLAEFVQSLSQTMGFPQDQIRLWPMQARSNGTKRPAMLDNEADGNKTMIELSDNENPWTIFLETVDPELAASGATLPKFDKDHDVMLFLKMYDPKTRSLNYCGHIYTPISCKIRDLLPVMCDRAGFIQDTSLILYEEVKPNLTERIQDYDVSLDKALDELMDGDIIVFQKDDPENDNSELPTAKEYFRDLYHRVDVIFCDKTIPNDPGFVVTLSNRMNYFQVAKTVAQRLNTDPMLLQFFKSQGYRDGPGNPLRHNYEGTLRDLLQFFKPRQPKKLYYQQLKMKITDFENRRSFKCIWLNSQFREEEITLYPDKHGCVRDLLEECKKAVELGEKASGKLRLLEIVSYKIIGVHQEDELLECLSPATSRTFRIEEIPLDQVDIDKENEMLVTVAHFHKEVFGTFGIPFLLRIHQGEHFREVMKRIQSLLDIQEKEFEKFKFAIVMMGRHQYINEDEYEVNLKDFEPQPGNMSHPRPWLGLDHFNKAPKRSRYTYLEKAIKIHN

Turning to `CN1CCN(CCC(=O)Nc2ccc3c(=O)n(CC4(O)CCN(C(=O)[C@@H](CCCNC(=O)c5ccc6c(Cl)c7c(nc6c5)CCCC7)Cc5ccccc5)CC4)cnc3c2)CC1` [XL177A], the IC50 is 0.3 nM.
